From patent US20100099642A1, “TGF-BETA STIMULANT AND FURTHER AGENT TO REDUCE SIDE EFFECTS” (TCP Innovations Limited, priority 2007, published 2010)
Marks after values point to notes of the source that are not given here.

Assays:
tgfb2 mRNA = tgfb2 mRNA level by quantitative PCR in human aortic vascular smooth muscle cells; type: cell-based; conditions: 24 hrs, normalised to TBP, vs vehicle
Procedure: (1995) Cardiovasc. Res. 29:848-55). […] The cells were then incubated for either 24 hrs or 72 hrs depending on the experiment. All treatment conditions were established in triplicate. The level of mRNA for tgfb1, tgfb2 and tgfb3 were estimated by quantitative PCR. The media was removed and RNA was carefully prepared using the Ambion RNAqueous4PCR kit (Ambion#1914) in accordance with the manufacturer's instructions. The purity of the RNA and the quantity was assessed spectrophotometrically. […] This analysis results in both a gel-like image as well as electrophoretic data. Indications of RNA degradation are: (a) decreasing ratio of ribosomal bands (b) additional peaks bellow the ribosomal bands (c) Decrease in overall RNA signal (d) shift towards shorter fragments. […] Next, the RNA was converted to cDNA using the ABI High-Capacity cDNA Archive Kit, in accordance with manufacturer's instructions. The qPCR assay was then set up as follow: all cDNA samples were diluted to 180 μl total volume using Molecular grade water. Samples were vortexed to ensure thorough mixing. cDNA was aliquoted into ABI 384 well plates using a multi-channel pipette, 4.5 μl of sample into each well. Samples were assayed in triplicate (that is, nine determinations in total were made for each condition, being three separate assays on each of three replicate culture wells). The assay mix and Universal Master Mix were prepared and aliquoted across the 384 well plates 5.5 μl in each well, using a single channel pipette. The final composition of each reaction (10 μl) being: Primer/Probe assay mix (×20)=0.5 μl; Universal Master Mix=5 μl; cDNA=4.5 μl. […] Quantitative PCR was performed using several primer/probe sets. […] In all quantitative PCR experiments, several additional controls were included: firstly, a control for each sample is run with no reverse transcription to ensure the mRNA sample is not contaminated with genomic DNA (although the manual design probe/primer sets were all selected to cross an exon/exon boundary, ensuring no detectable amplicon is produced from genomic DNA templates). […]

DBA/1 mice = assay: collagen-induced arthritis, footpad thickness in DBA/1 mice; type: in vivo, mouse; conditions: Tamoxifen 1 mg/kg/day p.o, aspirin 30 mg/kg/day p.o, from the booster injection onwards
Procedure: Collagen-induced arthritis was induced in adult male DBA/1 mice as previously described (Courtenay et al. (1980) Nature 283:666-8). Adult (12 week old) male DBA/1 mice were divided into groups of six animals. Mice received 100 μg per mouse of bovine type II collagen (Sigma) in Freunds Complete Adjuvant (FCA) by the subcutaneous route, while a control group received an identical injection of type I collagen in FCA. Twenty-one days later, all groups of mice received an intraperitoneal booster injection containing 100 μg per mouse of the same collagen type as previously, but in the absence of adjuvant. […] Foodpad thickness was determined each day using a digital caliper EC1507 (Moore & Wright) accurate to 0.01 mm. The thickness of each footpad was determined three times on each day by a single operator blind to the treatment condition of the mouse, and the footpad thickness of each mouse on each day was reported as the mean for the three measurements for all four paws. Errors represent the standard error of the mean among the six animals in each group.

[1] = system: anti-collagen type II antibodies; assay: direct ELISA for anti-collagen type II antibodies in serum of collagen-induced arthritis mice; type: in vivo, mouse; conditions: day 39, TMX 1 mg/kg/day, aspirin 30 mg/kg/day
Procedure: (1980) Nature 283:666-8). Adult (12 week old) male DBA/1 mice were divided into groups of six animals. […] Foodpad thickness was determined each day using a digital caliper EC1507 (Moore & Wright) accurate to 0.01 mm. The thickness of each footpad was determined three times on each day by a single operator blind to the treatment condition of the mouse, and the footpad thickness of each mouse on each day was reported as the mean for the three measurements for all four paws. Errors represent the standard error of the mean among the six animals in each group. A direct ELISA for anti-collagen type II antibodies was used as an alternative assessment of the autoimmune response.

Row | Compound | Level of tgfb2 mRNA, estimated by qPCR (tgfb2 mRNA; 10 μM A) | Level of tgfb2 mRNA, estimated by qPCR (tgfb2 mRNA; 33 μM A) | Level of tgfb2 mRNA, estimated by qPCR (tgfb2 mRNA; 100 μM A) | reduction of maximal collagen-II induced footpad swelling (DBA/1 mice) | Pan IgG against bovine collagen II, median concentration in serum [1] | IgG1 against bovine collagen II, median absorbance from the direct ELISA ([1]; neat serum) | IgG2a against bovine collagen II, median absorbance from the direct ELISA ([1]; neat serum) | IgG2b against bovine collagen II, median absorbance from the direct ELISA ([1]; neat serum) | IgG3 against bovine collagen II, median absorbance from the direct ELISA ([1]; neat serum)
1 | CC(=O)Oc1ccccc1C(=O)O [Aspirin, acetylsalicylic acid] | 0.92 ± 0.10 fold-change | 1.00 ± 0.17 fold-change | 1.03 ± 0.16 fold-change |  |  |  |  |  | 
2 | CC/C(=C(\c1ccccc1)c1ccc(OCCN(C)C)cc1)c1ccccc1 [Tamoxifen] |  |  |  | 36% | 181 µg/mL | <0.05* | 0.081* | 0.482* | 0.069*
